# Patent publication US12528776B2, “Composition and method for treating dermatological disorders using retinamides” (UNIVERSITY OF MARYLAND, Baltimore, priority 2019, dated 2026)
# Read-outs that look alike come from different tables or passages of the source.
# Tests used:
# retinoic acid metabolism = settings: racemate versus enantiomers; cited from earlier work
# [1] = test system: immortalized human sebocytes SZ95; settings: after 9 days; cited from earlier work
# NHAK cells = assay: Anti-proliferative effect of ATRA or 13-CRA alone or combined with low-dose VNLG-152; type: cell-based, human; settings: for GI50: Homo sapiens, alone, 0.1 to 10,000 nM, continuous incubation, read-out: GI50, ATRA or 13-CRA alone (Example 2); for fold enhancement of anti-proliferative activity (GI50) by VNLG-152: in combination with 40 nM VNLG-152, NHAK
# [2] = test system: keratin 10 (K10), keratin 19 (K19) and filaggrin expression in RHE cultures; assay: RHE immunostaining for K10, K19 and filaggrin; settings: 0.02% topical, 3 days, immunolabelling
# [3] = test system: reconstructed human epidermis (RHE); assay: Reconstructed human epidermis (RHE) histology, H and E; type: cell-based; settings: 0.02% topical, 3 days at 37° C.
# Description: RHE tissues were treated with indicated concentration and incubated for 3 days at 37° C. Following treatment tissues were fixed, sectioned and stained with H and E. Representative images from three independent experiments are shown in FIG. 5A to 5E. RHE tissues were untreated (FIG. 5A) or treated with vehicle (ethanol) (FIG. SB), ATRA 0.02% solution (FIG. 5C), 13-CRA 0.02% (FIG. 5D); and VNLG-152 0.02% (FIG. 5E). […] In the figures, “SC” refers to “stratum corneum”, “SG” to “stratum granulosum”, “SS” to “stratum spinosum”, and “SB” to “stratum basale”.
# [4] = test system: adult normal human keratinocytes (NHAKs); assay: Growth inhibition (MTT) of adult normal human keratinocytes; type: cell-based; settings: for GI50: Homo sapiens, Keratinocyte; for fold more potent inhibition of growth than 13-CRA (isotretinoin), NHAKs: ratio of GI50 values versus 13-CRA
# RARα,β,γ receptors = settings: significantly less potent than ATRA; cited from earlier work
# [5] = test system: SEB-1 human primary sebocytes; assay: Growth inhibition (MTT) of SEB-1 sebocytes; type: cell-based; settings: for GI50: Homo sapiens, 168 h, MTT assay, 7 days treatment; for fold more potent inhibition of growth than 13-CRA (isotretinoin), SEB-1: ratio of GI50 values versus 13-CRA
# Description: Human adult keratinocytes (pooled) (ZenBio Inc., Research Triangle Park, NC) were cultured in human adult keratinocyte growth medium (KM-2). The SEB-1 human primary sebocytes (ZenBio Inc., Research Triangle Park, NC) were cultured and maintained in sebocyte growth medium. Cells were plated 1 day prior to treatment. Retinamides (VNLG-152 and VNHM-1-73) and other clinically relevant retinoids (13-CRA, 9-CRA, and ATRA) were treated at indicated concentration and time periods and incubated at 37° C. in 5% CO2.
# Assays for normal human adult keratinocytes (NHAKs) and human SEB-1 sebocytes growth inhibition were performed as described previously^20. Adult human keratinocytes or sebocytes were treated with VNLG-152,VNHM-1-73 and other retinoids for 7 days. MTT assay was performed at the end of the experiment. Results represent the mean±standard deviation of three independent experiments.
# [6] = test system: castration-resistant prostate cancer xenograft; settings: in vivo; cited from earlier work
# NHAK = assay: TUNEL (in situ cell death detection) apoptosis assay; type: cell-based, human; settings: 72 hours
# Description: (§1) For acridine orange/ethidium bromide (AO/EB) dual staining assay, keratinocytes were treated with indicated concentrations of the compounds for 24.48 and 72 h. At the end of incubation period, 100 μl of 1:1 ratio of acridine orange (0.1%) and ethidium bromide (0.2%) in PBS were added to the cells and incubated at 37° C. and 5% CO2 for 30 min. Cells were then immediately analyzed using Nikon TE2000 fluorescence microscope. Assessment of the apoptotic potential by in situ Cell Death Detection assay was done as per protocol of the manufacturer (Roche Diagnostics).
# The apoptosis inducing potential of VNLG-152 was evaluated by TUNEL assay in NHAK. The individual cell lines as indicated were seeded in 8 well chamber slides, and treated with indicated concentrations and times of 13-CRA, ATRA and VNLG-/152. After 72 hours, the plates were analyzed for TUNEL positive staining. Statistical analysis was performed with ANOVA two factor with replication (*P<0.05, **P<0.01, ***P<0.001).
# [7] = test system: triple negative breast cancer (TNBC) tumor; settings: in vivo; cited from earlier work
# [8] = test system: mTORC1/4E-BP1/p70SK6 signaling; settings: cited from earlier work
# keratinocytes = assay: Acridine orange/ethidium bromide (AO/EB) dual staining apoptosis assay; type: cell-based, human; settings: VNLG-152 0.2 μM, 48 and 72 h; versus 13-CRA and ATRA 5 and 10 μM
# Description: as §1
# In FIGS. 3A and 3B, the plates were analyzed for early apoptotic and viable cells using acridine orange/ethidium bromide staining. […] In FIG. 3C, the bars are means of three replicate determinations plus standard deviations. Statistical analysis was performed with ANOVA two factor with replication (*P<0.05, **P<0.01, ***P<0.001).
# [9] = read-out: GI50 values in inhibiting NHAKs and sebocytes (range over both cell types)
# [10] = 168 h, MTT assay, 7 days treatment, read-out: GI50, growth and proliferation of adult keratinocytes (NHAKs)
smiles,measurement,setting,value
COC(=O)/C=C(C)/C=C/C=C(C)/C=C/C1=C(C)C(n2ccnc2)CCC1(C)C (racemic) [(±)-VN-12-1],fold more potent than either pure (4S)-(+)- or (4R)-(−)- enantiomer,retinoic acid metabolism,up to 28 fold
"CC1=C(/C=C/C(C)=C/C=C/C(C)=C/C(=O)O)C(C)(C)CCC1 [ATRA, all-trans-retinoic acid]",reduction of proliferation of SZ95 sebocytes,[1],approximately 50%
same,GI50,NHAK cells,63100 nM
same,fold enhancement of anti-proliferative activity (GI50) by VNLG-152,NHAK cells,200 fold
same,expression of K10 and filaggrin in sb and sg layers of RHE,[2],reduced the expression of these proteins
same,RHE morphology after topical treatment,[3],loss of keratohyalin granules in the upper granular layer
"CC1=C(/C=C/C(C)=C\C=C\C(C)=C\C(=O)O)C(C)(C)CCC1 [Compound 9-CRA, 9-cis-retinoic acid]",reduction of proliferation of SZ95 sebocytes,[1],approximately 50%
"CC1=C(/C=C/C(C)=C/C=C/C(C)=C\C(=O)O)C(C)(C)CCC1 [Compound 13-CRA, 13-cis-retinoic acid]",reduction of proliferation of SZ95 sebocytes,[1],approximately 50%
same,GI50,NHAK cells,75800 nM
same,fold enhancement of anti-proliferative activity (GI50) by VNLG-152,NHAK cells,123 fold
same,RHE morphology after topical treatment,[3],loss of keratohyalin granules in the upper granular layer
same,GI50,[4]; [9],26000 to 96400 nM
CC1=C(/C=C/C(C)=C/C=C/C(C)=C/C(=O)O)C(C)(C)CCC1n1ccnc1 (centres unmarked) [VN/14-1],RAR binding and activation,"RARα,β,γ receptors","binds and activates the RARα,β,γ receptors"
"CC1=C(/C=C/C(C)=C/C=C/C(C)=C\C(=O)NCc2ccc(O)cc2)C(C)(C)CCC1n1ccnc1 (centres unmarked) [VNHM-1-73, (2Z,4E,6E,8E)-9-(3-(1H-imidazol-1-yl)-2,6,6-trimethylcyclohex-1-en-1-yl)-N-(4-hydroxybenzyl)-3,7-dimethylnona-2,4,6,8-tetraenamide]",GI50,[5],467 nM
same,"fold more potent inhibition of growth than 13-CRA (isotretinoin), SEB-1",[5],85 fold
same,GI50,[4]; [10],1280 nM
same,"fold more potent inhibition of growth than 13-CRA (isotretinoin), NHAKs",[4],59.3 fold
CC1=C(/C=C/C(C)=C/C=C/C(C)=C/C(=O)Nc2ccc(F)cc2)C(C)(C)CCC1n1ccnc1 (centres unmarked) [VNLG-152],effect on castration-resistant prostate cancer xenograft growth,[6],suppress EMT and castration-resistant prostate cancer xenograft growth
same,anti-proliferative effect at low dose,"NHAK cells; 40 nM VNLG-152 alone, NHAK",< 10%
same,GI50,[5],66 nM
same,"fold more potent inhibition of growth than 13-CRA (isotretinoin), SEB-1",[5],603 fold
same,times more potent than 13-CRA in reducing the growth of SEB-1 sebocytes,[5]; versus 13-CRA,about 35 times
same,expression of K10 and filaggrin in sb and sg layers of RHE,[2],reduced the expression of these proteins
same,induction of apoptosis versus control (TUNEL),NHAK; 0.2 μM,~50%
same,induction of apoptosis (TUNEL),NHAK; 1 μM,~84%
same,RHE morphology after topical treatment,[3],loss of keratohyalin granules in the upper granular layer
same,GI50,[4]; [10],239 nM
same,GI50,[4]; [9],66 to 239 nM
same,"fold more potent inhibition of growth than 13-CRA (isotretinoin), NHAKs",[4],317.4 fold
same,effect on TNBC tumor growth and metastasis,[7],potently inhibits triple negative breast cancer (TNBC) tumor growth and metastasis
same,inhibition of mTORC1 signaling,[8],potently inhibits mTORC1/4E-BP1/p70SK6 signaling
same,"pro-apoptotic effect, AO/EB dual staining",keratinocytes,strong pro-apoptotic effects
